From US20230210984A1, “ADOPTIVE IMMUNOTHERAPY” (The Council of the Queensland Institute of Medical Research, priority 2019, published 2023)
Where two headings read alike, the source gives them in different places.

Experiments:
[1] = system: SNU719 and C666.1 cells; test: Flow cytometry of cancer cell intrinsic pathways and immune regulatory molecules; assay type: cell-based; details: 16 hours, JQ1 2.5 μM; for MHC-Class I expression: inhibitor alone and in combination with HLA-matched T cells; for MHC-Class I expression / MYC expression / pERK1/2 expression / pSTAT3 expression: selumatinib 1 μM
Description: FIG. 13: Phenotyping the impact of dual combination of MEK1/2 inhibitor and HLA matched allogeneic EBV specific T coils on cancer cell intrinsic pathways. Representation of the cancer cell phenotype after 16 hours of individual and dual combination of selumatinib (1 μM) and HLA-matched EBV specific T cells (effector-to-target ratio of 25:1) among SNU719 (upper panel) and C666.1 (lower panel) on the expression of (A) pERK1/2; (B) MHC-Class I; (C) pSTAT3; and (D) MYC performed using flow cytometry. The data are represented as the mean±SD from three independent experiments. P-values were calculated using one-way ANOVA: ns=not significant, *p<0.05, **p<0.01, ***p<0.001 and ****p<0.0001.
FIG. 17: Phenotyping the impact of dual combination of JQ1 inhibitor and MLA matched allogeneic EBV-specific T cells on cancer cell intrinsic pathways. Representation of the cancer cell phenotype after 16 hours of individual and dual combination of JQ1 (2.5 μM) and HLA-matched EBV specific T cells (effector-to-target ratio of 25:1) among SNU719 (upper panel) and C666.1 (lower panel) on the expression of (A) MYC; (B) pERK1/2; (C) pAKT; and (D) pSTAT3 performed using flow cytometry. The data are represented as the mean±SD from three independent experiments. P-values were calculated using one-way ANOVA: ns=not significant, *p<0.05, **p<0.01, ***p<0.001 and ****p<0.0001.
FIG. 18: Phenotyping the impact of dual combination of JQ1 inhibitor and HLA matched allogeneic EBV specific T cells on immune regulatory molecules. Representation of the cancer cell phenotype after 16 hours of individual and dual combination of JQ1 (2.5 μM) and HLA-matched EBV specific T cells (effector-to-target ratio of 25:1) among SNU719 (upper panel) and C666.1 (lower panel) on the expression of (A) MHC Class-I; (B) PD-L1; and (C) CD47 performed using flow cytometry. The data are represented as the mean±SD from three independent experiments. P-values were calculated using one-way ANOVA: ns=not significant, *p<0.05, **p<0.01, ***p<0.001 and ****p<0.0001.
In next set of experiments, we wanted to investigate the effect of the dual combination the cancer cell intrinsic pathway and describe the rationale of the effective combination of MEK1/2 inhibition with T cell treatment. […] As a result, we observed upregulation of MHC-Class I expression in presence of selumatinib alone and in combination with respective HLA-matched T cells (FIG. 13B). […] Thus, inhibition of MEK1/2 pathway results in upregulation of MHC-class I expression via upregulation of STAT3 pathway and downregulation of MYC which enabling better therapeutic compatibility in presence of HLA-matched allogeneic T cells.
Next, we wanted to determine the specificity of the combination and as such we challenged SNU719 and C666.1 cells with HLA-mismatch allogeneic T cells alongside JQ1 inhibitor individually and in combination. […] In next set of experiments, we wanted to investigate rationale of the effective combination of JQ1 inhibition with T cell treatment. […] As a result, it caused downregulation of pERK1/2, pAKT and pSTAT3 expression (FIG. 17B-C).

[2] = system: EBV-associated cell lines (nasopharyngeal and gastric cancer cell lines); test: MTS cell viability assay, IC50 of inhibitors; assay type: cell-based; details: for IC50: read-out: IC50 (~50% reduction in cell viability); for IC25 value (sub IC50 value): concentration chosen for in vitro combination treatment
Description: FIG. 9: Determining the IC50 value of MEK1/2 inhibitors. Representation of the cell viability performed using MTS assay after the indicated cell lines were incubated with 0.1 μM-5 μM of selumatinib (left panel) and trametinib (right panel) for 48 hours. The data are represented as the mean±SD from three independent experiments.
FIG. 14: Determining the IC50 value of JQ1 inhibitors. Representation of the cell viability performed using MTS assay after the indicated cell lines were incubated with 0.5 μM-10 μM of JQ1 for 48 hours. The data are represented as the mean±SD from three independent experiments.
Cell viability assay was performed using the CellTiter 96® AQueous one cell viability assay reagent (Promega, WI, USA) for three biological replicates per EBV-associated cancer cell lines in triplicate. Briefly, the cancer cells (target cells) were plated at a density of 5000 cells per well in an overall media volume of 200 μL on a 96-well tissue-culture plate (BD Falcon™). The effector AdE1-LMPpoly transfected T cells were freshly thawed in RPMI-1640 with 10% FCS and 120 IU/mL of recombinant IL-2 at 37° C. and […]. Post 24 hrs of plating and incubation at 37° C. and […], the effector T cells were mixed to the target cells at a gradient ratio of effector to target (E:T) of 5:1-100:1. The exact number of T cells (To) used per E:T ratio (ET) was independently used as control alongside PBS treated target cells (Es) and sole media (M0). After 24 hrs of incubation at 37° C. and […], MTS was added to each well (1:100 dilution in media) and was incubated for 1 hour following which the plate was centrifuged at 1,200×g at room temperature for 5 min and absorbance of the mixture at an optical density of 490 nm was measured via a microplate reader. The relative cell viability was calculated using the following formula: […]
To determine the upregulation of MAPK pathway in EBV-associated solid cancers, we first identified the IC50 value of MEK1/2 inhibitors (AZD6244 or selumetanib and trematinib) across nasopharyngeal and gastric cancer cell lines (with drug concertation ranging from 0.1 μM-5 μM). […] In the next set of experiments, we wanted to determine the impact of MEK1/2 inhibition in combination with allogeneic EBV-specific T cells on EBV-associated solid cancers. As such, we treated the respective EBV-associated cell lines (both gastric and nasopharyngeal) individually or in combination with MEK1/2 inhibitors (both selumetanib and trematinib) and EBV-specific T cells.
Similarly, we targeted MYC-dependent cancer intrinsic pathway using JQ1 inhibitor by first determining the IC50 value of the inhibitor across nasopharyngeal and gastric cancer cell lines (with drug concertation ranging from 0.5 μM-10 μM). […] To characterized the impact of JQ1 inhibition in combination with allogeneic EBV-specific T cells on EBV-associated cancer cells, we used IC25 value JQ1 (2.5 μM) alongside an effector to target ratio of 25:1 of the respective HLA matched allogeneic EBV-specific T cells in vitro. […] We also performed phenotypic characterization, using flow cytometry, of SNU719 and C666.1 cells after 16 hours of individual and dual treatment in vitro.

For Cc1sc2c(c1C)C(c1ccc(Cl)cc1)=N[C@@H](CC(=O)OC(C)(C)C)c1nnc(C)n1-2 [JQ1], the CD47 expression [1] was “downregulation”, the PD-L1 expression [1] was “downregulation” and the pAKT expression [1] was “downregulation”. For the same compound, the “MHC-Class I expression” value [1] was “enhancing”, the MYC expression [1] was “significant reduction” and the pERK1/2 expression [1] was “downregulation”. The pSTAT3 expression [1] was “downregulation”, the IC50 ([2]; EBV-associated nasopharyngeal and gastric cancer cell lines, MTS assay, 48 hours, compared to NPC43 (EBV-)) was ~2500 nM and the “IC25 value (sub IC50 value)” value [2] was 2500 nM.

In the case of Cn1cnc2c(F)c(Nc3ccc(Br)cc3Cl)c(C(=O)NOCCO)cc21 [selumetanib], the “MHC-Class I expression” value [1] is reported as “upregulation”, the MYC expression [1] is reported as “downregulation” and the pERK1/2 expression [1] is reported as “significant reduction”. For the same compound, the pSTAT3 expression [1] was “upregulation”, the IC50 ([2]; 48 h) was ~2500 nM and the “IC25 value (sub IC50 value)” value [2] was 1000 nM.
